Laboratory results taken from ChEMBL document CHEMBL2331300, “Inhibition of enterovirus 71 infections and viral IRES activity by Fructus gardeniae and geniposide” (2013).

What was measured:
Enterovirus A71 [1] = assay: Antiviral activity against EV71 infected in human RD cells assessed as cell survival rate at 1 to 2 mg/ml after 24 hrs by WST-1 assay; format: functional
Enterovirus A71 [2] = assay: Antiviral activity against EV71 infected in human RD cells assessed as viral RNA transcript level at 1 mg/ml treated 24 hrs prior to infection measured after 24 hrs by real time RT-PCR analysis; format: functional
RD [3] = assay: Inhibitory activity of EV71 IRES co-transfected with EMCV IRES in human RD cells at 2 mg/ml after 24 hrs by luciferase reporter gene assay; format: cell-based; conditions: Enterovirus A71
RD [4] = assay: Inhibitory activity of EMCV IRES co-transfected with EV71 5' UTR in human RD cells at 2 mg/ml after 24 hrs by luciferase reporter gene assay; format: cell-based; conditions: Encephalomyocarditis virus
Enterovirus A71 [5] = assay: Antiviral activity against EV71 infected in human RD cells assessed as viral RNA transcript level at 2 mg/ml treated 24 hrs prior to infection measured after 24 hrs by real time RT-PCR analysis; format: functional
Enterovirus A71 [6] = assay: Antiviral activity against EV71 infected in human RD cells assessed as inhibition of viral infection at 2 mg/ml treated 24 hrs prior to infection measured after 72 hrs by WST-1 assay; format: functional; conditions: Enterovirus A

Q: Which Survival (Enterovirus A71 [1]) does the source give for `CC(/C=C/C=C(\C)C(=O)O[C@@H]1O[C@H](CO[C@@H]2O[C@H](CO)[C@@H](O)[C@H](O)[C@H]2O)[C@@H](O)[C@H](O)[C@H]1O)=C\C=C\C=C(C)\C=C\C=C(/C)C(=O)O[C@@H]1O[C@H](CO[C@@H]2O[C@H](CO)[C@@H](O)[C@H](O)[C@H]2O)[C@@H](O)[C@H](O)[C@H]1O` [CROCIN] here?
A: The Survival was “>=80%”.

Q: For `COC(=O)C1=CO[C@@H](O)[C@@H]2C(CO)=CC[C@H]12` [GENIPIN], which Survival (Enterovirus A71 [1]) is on record?
A: The Survival was “>=80%”.

Q: Which results are given for `COC(=O)C1=CO[C@@H](O[C@@H]2O[C@H](CO)[C@@H](O)[C@H](O)[C@H]2O)[C@@H]2C(CO)=CC[C@H]12` [GENIPOSIDE]?
A: Activity (Enterovirus A71 [2]): 60%; inhibition (RD [3]): 50%; inhibition (RD [4]): 50%; Activity (Enterovirus A71 [5]): 20%; Survival (Enterovirus A71 [1]): >=80%; inhibition at 2000 µg/mL (Enterovirus A71 [6]): 80%

Q: `O=C(O)C1=CO[C@@H](O[C@@H]2O[C@H](CO)[C@@H](O)[C@H](O)[C@H]2O)[C@@H]2C(CO)=CC[C@H]12` [GENIPOSIDIC ACID] was tested. Which Survival (Enterovirus A71 [1]) did it give?
A: Its Survival is “>=80%”.
